# In PubChem BioAssay AID1645863 (Buhrlage Lab, Dana-Farber Cancer Institute and Novartis …, 2021):
# Calls of active or inactive are those of the source. No rule for the calls is given here.
# Target: Ubiquitin carboxyl-terminal hydrolase 10 (Homo sapiens) (UniProt Q14694)
# Assay: primary hit verification, biochemical, ubiquitin-specific protease 10 deubiquitylase inhibitors, concentration-effect titration (AID 1645863);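 also: potency values describe inhibition of USP10 cleavage of a fluorogenic ubiquitin substrate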
# Conditions: USP10 deubiquitinase enzymatic assay
# Ubiquitin carboxyl-terminal hydrolase 10 (Homo sapiens), sequence (Q14694 whole entry, looked up): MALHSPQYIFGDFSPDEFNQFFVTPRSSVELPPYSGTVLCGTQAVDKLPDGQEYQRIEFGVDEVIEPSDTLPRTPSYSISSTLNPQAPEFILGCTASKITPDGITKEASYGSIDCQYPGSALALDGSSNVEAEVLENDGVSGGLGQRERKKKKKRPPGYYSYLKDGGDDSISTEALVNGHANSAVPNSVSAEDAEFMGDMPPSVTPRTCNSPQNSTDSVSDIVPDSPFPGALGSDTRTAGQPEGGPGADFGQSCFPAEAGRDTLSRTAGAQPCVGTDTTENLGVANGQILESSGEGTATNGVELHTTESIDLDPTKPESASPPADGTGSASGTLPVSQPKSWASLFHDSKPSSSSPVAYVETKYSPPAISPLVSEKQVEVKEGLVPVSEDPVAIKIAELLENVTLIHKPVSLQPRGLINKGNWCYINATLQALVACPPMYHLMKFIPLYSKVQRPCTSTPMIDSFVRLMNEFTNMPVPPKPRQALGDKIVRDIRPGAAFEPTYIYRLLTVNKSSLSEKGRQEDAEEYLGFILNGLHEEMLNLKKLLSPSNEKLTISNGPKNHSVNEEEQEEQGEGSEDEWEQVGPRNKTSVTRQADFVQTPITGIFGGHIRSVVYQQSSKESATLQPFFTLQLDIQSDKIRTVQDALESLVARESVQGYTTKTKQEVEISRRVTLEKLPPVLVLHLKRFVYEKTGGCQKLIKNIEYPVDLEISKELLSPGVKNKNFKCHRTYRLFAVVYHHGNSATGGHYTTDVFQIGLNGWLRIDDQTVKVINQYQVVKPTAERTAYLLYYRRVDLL
row,SMILES,IC50
1,Cc1cccc(NC(=O)c2noc3c2CCc2sccc2-3)n1,> 40 µM (inactive)
2,COc1ccc(-c2cc3n(c(=N)c2C#N)CCc2cc4c(cc2-3)OCO4)cc1O,> 40 µM (inactive)
3,CCN(c1ccc(NC(=O)COC(=O)c2cccnc2Nc2cccc(C(F)(F)F)c2)cc1)C(C)C,> 40 µM (inactive)
4,O=C(NC1CCCC1)C1CC(=O)N(c2cccc(-c3noc(-c4cccs4)n3)c2)C1 (stereo unspecified),> 40 µM (inactive)
5,COc1ccc(-c2n[nH]n3c2nc(=O)c2ccc(C(=O)NCc4ccco4)cc23)cc1,> 40 µM (inactive)
6,O=C(Nc1ccc(NC(=O)c2ccccc2O)cc1)Nc1ccc(OCc2ccccc2)cc1,> 40 µM (inactive)
7,O=C(Cn1ccc2ccn(Cc3ccccc3)c2c1=O)Nc1ccccc1Cl,> 40 µM (inactive)
8,Cc1nc2c(-c3ccc(Cl)cc3)c[nH]n2c(=O)c1Cc1ccccc1,> 12.6 µM (inactive)
9,Cc1ccc(Nc2nc(O)c(CC(=O)Nc3ccccc3C)s2)cc1C,> 40 µM (inactive)
10,COc1ccc(-c2cc3nc([C@H](C)NC(=O)Cc4ccccc4C)nn3cn2)cc1,> 40 µM (inactive)
11,Cn1c(=O)[nH]c2nncnc2c1=O,> 40 µM (inactive)
12,COc1cc2c(=O)n(Cc3ccccc3)c(=O)n(CC(=O)N3CCCc4ccccc43)c2cc1OC,12.7 µM
13,O=C(COc1ccc(Cl)cc1)Nc1noc(-c2cccs2)n1,> 40 µM (inactive)
14,O=C(CSc1nc2cc(C(F)(F)F)ccc2s1)NCC(=O)c1ccccc1,18.1 µM
15,Cc1cc(-c2ccc(S(=O)(=O)NCc3ccc(Cl)cc3)s2)on1,> 40 µM (inactive)
16,CCC(C(=O)C(C)C(O)C(C)CCc1ccc(C)c(O)c1C(=O)O)C1OC(CC)(C2CCC(O)(CC)C(C)O2)CC1C (stereo unspecified),9.99 µM
17,N#Cc1ccc(NC(=O)Nc2cccn(Cc3ccccc3F)c2=O)cc1,> 40 µM (inactive)
18,O=C(Nc1cccc(F)c1)Nc1cccc(-c2nnc(-c3ccccc3)o2)c1,18.2 µM
19,O=C(c1cc2occc2c(Nc2ccc(F)cc2)n1)N1CCN(c2ccccc2)CC1,> 40 µM (inactive)
20,CCOC(=O)C1CCN(C(=O)c2ccc3c(c2)NC(=O)C2CCCN32)CC1 (stereo unspecified),> 40 µM (inactive)
21,CCCCC/C=C/C=C/C(=O)OC1C(O)CC(c2ccc3c(c2O)C(=O)c2c(O)cc4cc(C)cc(O)c4c2C3=O)OC1C (stereo unspecified),> 40 µM (inactive)
22,Cc1ccc([N+](=O)[O-])cc1S(=O)(=O)Nc1cc2sc(=O)oc2c2ccccc12,> 40 µM (inactive)
23,CCOC(=O)N1CCN(C(=O)c2ccc(NCc3ccc(F)cc3)c(S(=O)(=O)Nc3cccc(C(F)(F)F)c3)c2)CC1,29.8 µM

row,SMILES,IC50
1,Cc1cc(N2CCOCC2)nc(N2CCN(C(=O)C(C)Oc3ccccc3)CC2)n1 (stereo unspecified),> 40 µM (inactive)
2,O=C(CCCc1nnc2c(=O)n(-c3cccc(F)c3)ccn12)NCc1ccc(Cl)cc1,18.2 µM
3,COc1ccc(NS(=O)(=O)c2cc(NC(=O)/C=C/c3ccco3)ccc2N2CCCC2)cc1,> 40 µM (inactive)
4,CCOc1ccc(C2SCC(=O)Nc3c2c(=O)[nH]n3C2CCCCC2)cc1 (stereo unspecified),> 40 µM (inactive)
5,CCc1ccc(NC(=O)Cn2c(=O)n(Cc3ccccc3)c(=O)c3nn(CC)cc32)cc1,> 40 µM (inactive)
6,COc1ccc(S(=O)(=O)NC2CC(=O)N(c3ccc(Cl)cc3)C2)cc1 (stereo unspecified),> 40 µM (inactive)
7,COc1ccc(-c2cc3c(=O)n(CC(=O)Nc4ccccc4C)ccn3n2)cc1,> 40 µM (inactive)
8,COc1cccc2cc(-c3nnc(SCC(=O)c4ccc(F)cc4)n3C)oc12,> 40 µM (inactive)
9,COc1ccccc1CNC(=O)C1c2ccccc2C(=O)N1Cc1ccccc1C (stereo unspecified),> 40 µM (inactive)
10,Cc1sc2ccn(C)c(=O)c2c1C(=O)NC1CCCC1,27.5 µM
11,Nc1c(C(=O)NCc2ccc3c(c2)OCO3)nnn1Cc1ccc(Br)cc1F,18.4 µM
12,O=C1CSC(c2ccc(F)cc2)c2c(n(C3CCCCCC3)[nH]c2=O)N1 (stereo unspecified),32.4 µM
13,CCc1ccc(NC(=O)Cc2nnc3cc(-c4nc(C)no4)ccn23)cc1,12.7 µM
14,COc1cc(NC(=O)c2ccc3c(c2)OCO3)ccc1-c1cc2ccccc2oc1=O,> 40 µM (inactive)
15,O=C(CCn1c(=O)c2sccc2n(Cc2ccc([N+](=O)[O-])cc2)c1=O)NCc1ccccc1,> 40 µM (inactive)
16,Cc1ccc(NC(=O)Cn2c(=O)n(CC(=O)NCCc3ccccc3)c(=O)c3sccc32)cc1C,21 µM
17,CC(C)n1cc(CN2CCC(C(=O)Nc3cccc(-c4cccc(Cl)c4)c3)CC2)cn1,> 40 µM (inactive)
18,COc1ccc(-c2noc(CC(=O)Nc3cccc(OC)c3)n2)cc1,> 40 µM (inactive)
19,CNc1ccc(-c2noc([C@@H]3CCCN3Cc3cccc(C#N)c3)n2)cn1,> 40 µM (inactive)
20,Oc1cccc2c(-c3ccc(O)c4c(O)cccc34)ccc(O)c12,> 40 µM (inactive)
21,O=C(NCc1ccc(F)cc1)c1cccc(Nc2nc3ccccc3n3cnnc23)c1,38 µM
22,COc1ccc(CC(=O)Nc2ccccc2-c2nc3ccccc3[nH]2)cc1OC,36.7 µM
23,COc1ccc(NC2c3ccccc3C(=O)N2c2ccccn2)cc1 (stereo unspecified),> 40 µM (inactive)
